Legend:
[1] = Pharmacokinetic test of rats (intravenous and intragastric administration); assay type: in vivo; settings: SD rats; for AUC(0-t) / Cmax / clearance / half-life: rat, plasma
Description: This experiment was intended to evaluate a pharmacokinetic behavior of an implementing compound after intravenous injection or intragastric administration in the rats. Intravenous injection administration: a test compound was prepared into 0.2 mg/mL clear solution, a solvent was 10% ethanol, 40% polyethylene glycol 400 and 50% water, and after administration, plasma was collected 0.083 hour, 0.25 hour, 0.5 hour, 1 hour, 2 hours, 4 hours, 8 hours and 24 hours later. Intragastric administration: a test compound was prepared into 1 mg/mL clear solution, a solvent was 10% ethanol/40% polyethylene glycol 400/50% water, and after administration, plasma was collected 0.25 hour, 0.5 hour, 1 hour, 2 hours, 4 hours, 8 hours and 24 hours later.
A concentration of the test compound in the plasma was determined by high-performance liquid chromatography-tandem mass spectrometry (LC-MS/MS). Retention time, chromatogram collection and chromatogram integration of compounds and internal standards were treated by software Analyst (Applied Biosystems), and data statistics was treated by software Analyst (Applied Biosystems).
A plasma concentration was treated by a non-atrioventricular model of Winnonlin™ Version 6.1 (Pharsight, Mountain View, CA) pharmacokinetic software, and pharmacokinetic parameters were calculated by a linear logarithmic trapezoid method.
Pharmacokinetic parameters of the compounds in the rats with an intravenous injection dose of 1 mg/kg and an intragastric and oral dose of 5 mg/kg were as shown in Table 20 below.

CYP3A4 = CYP3A4 (Homo sapiens, UniProt P08684); experiment: biochemical; assay type: in vitro ADME
[2] = Tissue distribution, AUC ratio of heart to kidney; assay type: in vivo; settings: compared with Finerenone
[3] = mouse, in vivo
Text: In particular, a maximum tolerated dose of the compound 36 after repeated administration for 14 days is more than 2.7 times that of the compound 62, especially a safety window of the dose is more than 230 times that of the equivalent dose, so that the compound has high safety.

[4] = molecular target: T1, mineralocorticoid receptor (MR) (Homo sapiens, UniProt P08235); experiment: MR Gal4-LBD luciferase reporter gene assay in HEK293T cells (antagonism of 0.8 nM aldosterone); assay type: cell-based
T1 construct: expressed in transfected cells
T1 sequence (P08235 726-964 limits assumed): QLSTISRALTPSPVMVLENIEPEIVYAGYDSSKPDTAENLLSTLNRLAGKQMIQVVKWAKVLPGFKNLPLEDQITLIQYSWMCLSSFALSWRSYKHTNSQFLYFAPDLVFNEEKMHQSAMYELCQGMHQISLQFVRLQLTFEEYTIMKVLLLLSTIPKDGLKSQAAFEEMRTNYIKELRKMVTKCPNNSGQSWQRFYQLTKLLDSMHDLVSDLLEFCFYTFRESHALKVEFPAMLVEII
Text: By the characteristic of chemiluminescence reaction produced by combination of luciferase and substrate, a Gal4 DNA binding domain (DBD) fused plasmid containing a mineralocorticoid receptor (MR) ligand binding domain (LBD) and a firefly luciferase reporter gene plasmid under the control of Gal4 UAS (upstream activation sequence) were transfected into human embryonic kidney cells (HEK293). Changes of […] were judged by a level of firefly luciferase activity.
All compounds were dissolved in DMSO to prepare a 25 mM stock solution, and stored in a refrigerator at −20° C.
• 1) A compound to be tested was subjected to 3-times gradient dilution with the DMSO, with 10 concentration gradients and an initial concentration of 10 mM. • 2) A positive compound (Finerenone) was subjected to 3-times gradient dilution with the DMSO, with 10 concentration gradients and an initial concentration of 1 mM. • 3) 1000× positive control (1 mM, Finerenone) and 1000× negative control (100% DMSO) were prepared. • 4) A compound plate was sealed and shaken for 5 minutes.
• 5) All cells were cultured by ATCC standard operation, and HEK293T was experimented in an exponential growth phase. • 6) A culture medium supernatant was gently discarded. The cells were washed with PBS twice.
(3) The cells were digested with pancreatin digestive juice, the digestion was stopped with a complete culture solution, and then the cells were collected and counted.
(4) 6×10^6 HEK293T cells were inoculated into a 100 mm cell culture dish.
(5) The culture dish inoculated with the cells was cultured in a 5% CO2 incubator at 37° C. for 16 hours overnight.
• 1) Lipofectamine® 3000&P3000 transfection reagents were placed at room temperature. • 2) The Lipofectamine® 3000 reagent was added into an Opti-MEM™ culture medium, and meanwhile, the P3000, the plasmid and the Opti-MEM™ culture medium were added into another tube, taking care not to touch the tube wall. • 3) The mixture was mixed evenly by a pipette, and allowed to stand at room temperature for 5 minutes. • 4) The plasmid was added into the diluted transfection reagent, mixed evenly by a pipette, and allowed to stand at room temperature for 20 minutes. • 5) The transfection reagent mixed with the plasmid was added into a […] cell culture dish. • 6) The culture dish was cultured in a 5% CO2 incubator at 37° C. for 5 hours to 6 hours.
• 1) 25 nL of diluted compound was transferred to a cell culture plate with Echo655. • 2) The cells (referring to step 1.3) were inoculated into a 384 cell culture plate, with 17,000 cells, 25 μL of phenol red-free DMEM culture medium containing 5% CFBS and 0.8 nM Aldosteron per well.
(3) The cell culture plate was cultured in a 5% CO2 incubator at 37° C. for 18 hours to 20 hours overnight.
• 1) A Britelite plus detection reagent was placed at room temperature. 2) The 384 cell plate was placed at room temperature. • 3) 25 μL of Britelite plus detection reagent was added into each well of the cell culture plate. • 4) A luminescence was detected with Envision.
• 1) a firefly luciferase signal was obtained by reading the Luminescence to calculate an inhibition rate; • 2) % inhibition rate=100−[(RLU compound−avgRLU positive control)/(RLU negative control−avgRLU positive control)×100%, wherein the avgRLU positive control was an average value of Luminescences of all positive control wells in the whole plate; the avgRLU negative control was an average value of Luminescences of all negative control wells in the whole plate; and the RLU compound was Luminescence values of compounds to be tested with different concentrations; and • 3) IC50 of the compound was calculated by Graphpad8.0 Drawing software.

[5] = intragastric and oral administration 5 mg/kg
[6] = CYP3A4-5M IC50, human CYP3A4, CYP3A4-5M
[7] = CYP3A4-5T IC50, human CYP3A4, CYP3A4-5T

Chain of CYP3A4 (P08684 2-503 limits assumed): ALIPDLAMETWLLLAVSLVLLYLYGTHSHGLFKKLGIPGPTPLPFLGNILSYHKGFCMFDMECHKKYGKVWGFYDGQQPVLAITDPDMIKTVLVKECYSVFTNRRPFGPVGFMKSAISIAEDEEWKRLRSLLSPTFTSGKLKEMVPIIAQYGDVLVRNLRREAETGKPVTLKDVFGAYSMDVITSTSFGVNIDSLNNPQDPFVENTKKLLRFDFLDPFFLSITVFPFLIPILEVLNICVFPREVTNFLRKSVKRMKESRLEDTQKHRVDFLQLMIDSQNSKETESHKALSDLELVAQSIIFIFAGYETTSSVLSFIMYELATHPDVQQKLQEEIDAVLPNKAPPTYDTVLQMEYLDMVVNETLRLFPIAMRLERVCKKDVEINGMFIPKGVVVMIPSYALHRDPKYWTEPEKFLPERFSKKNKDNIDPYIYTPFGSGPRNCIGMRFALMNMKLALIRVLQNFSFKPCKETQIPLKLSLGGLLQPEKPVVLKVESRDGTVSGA

Compound | F [1, 5] [%] | AUC(0-t) [1, 5] [µg·h/mL] | Cmax [1, 5] [ng/mL] | AUC(0-t) ([1]; intravenous 1 mg/kg) [µg·h/mL] | clearance ([1]; intravenous 1 mg/kg) [mL/min/kg] | half-life ([1]; intravenous 1 mg/kg) [h] | inhibitory effect on CYP3A4 (CYP3A4) | IC50 (CYP3A4; [6]) [µM] | IC50 (CYP3A4; [7]) [µM] | AUC (tissue distribution) ratio of heart to kidney [2] | maximum tolerated dose after repeated administration for 14 days, relative to compound 62 [3] | safety window of the dose relative to the equivalent dose ([3]; 14 days) | IC50 [4] [µM] | maximum tolerated dose after repeated administration for 14 days (safety in words) [3]
CCOc1ncc(C)c2c1[C@H](c1ccc(C#N)c3c1OCC3)C(C(N)=O)=C(C)N2 [Example 36, (S)-4-(4-cyano-2,3-dihydrobenzofuran-7-yl)-5-ethoxy-2,8-dimethyl-1,4-dihydro-1,6-naphthyridine-3-formamide] | 73.74 | 365 | 37000 | 94.1 | 0.14 | 12.1 | small inhibitory effect | 22.9 | 15.8 | lower | more than 2.7 times that of the compound 62 | more than 230 times that of the equivalent dose | 0.0115 | 
CCOc1ncc(C)c2c1[C@H](c1ccc(C#N)c3c1OCO3)C(C(N)=O)=C(C)N2 [Example 62, (S)-4-(7-cyanobenzo[d][1,3]dioxol-4-yl)-5-ethoxy-2,8-dimethyl-1,4-dihydro-1,6-naphthyridine-3-formamide] | 78.09 | 361 | 24000 | 106 | 0.13 | 10.1 |  | 13.7 | 5.35 |  |  |  | 0.0148 | highly safe

Reference: US20260250278A1, “PHENYL-SUBSTITUTED DIHYDRONAPHTHYRIDINE COMPOUNDS, AND PREPARATION AND USE THEREOF” (SUZHONG PHARMACEUTICAL GROUP CO., LTD., priority 2022, published 2026)
